Measured values as given in patent publication US20240245703A1, “TOPICAL APPLICATION OF AGENTS TO REDUCE SUN SENSITIVITY AND IMPROVE TOPICAL PHOTODYNAMIC THERAPY” (Wright State University, priority 2021, published 2024).

Legend:
[1] = system: PDT-induced immunosuppression; assay: contact hypersensitivity (CHS) to DNFB after PDT, ear thickness; assay type: in vivo, mice; conditions: aSMase-deficient (Smpd1-/-) mice, CPAF intraperitoneal
From the text: Five days later the mice underwent sensitization with the neoantigen DNFB. To test for local immunosuppression, DNFB was applied to the PDT-treated area. To test for systemic immunosuppression, the DNFB was applied to back skin at least 2 cm away from the PDT-treated area. Nine days later the mice underwent elicitation reactions to DNFB by application to one ear, with vehicle applied to the other ear. One day later the ear thickness was obtained as a measure of CHS reaction and compared to pre-treatment and vehicle-treated values. Some mice were treated with intraperitoneal CPAF as a positive control for systemic immunosuppression.
For the data shown in FIG. 20, wild-type mice either were injected intraperitoneally with 250 ng CPAF as a positive control for immunosuppression, underwent PDT using 10 J/cm^2 blue light, or received no treatment (SHAM). […] Five days later the mice underwent sensitization with DNFB in PDT-treated (local immunosuppression) or non-PDT-treated skin (systemic immunosuppression). Nine days later the mice underwent elicitation reactions to ears with ear thickness measured at 24 hours. For the data shown in FIG. 21, wild type and aSMase-deficient (Smpd1−/−) mice underwent treatment with CPAF or PDT followed by DNFB sensitization/elicitation reactions as in FIG. 20. The data are mean±SD values. * Denotes statistically significant (P<0.05) changes from sham treatment values using two-way ANOVA.

[2] = system: human fibroblasts which lack PAFRs; assay: MVP levels in human fibroblasts which lack PAFRs; assay type: cell-based; conditions: human fibroblasts lacking PAFRs, data not shown
[3] = hairless mice, effect of propylene glycol; cited from earlier work
aSMase [4] = assay: residual aSMase activity after treatment of PC12 cells with 10 micromolar agent; assay type: cell-based; conditions: from Table 1 residual aSMase activity
Experimental: The data were obtained in a cell-based study by adding 10 micromolar aliquots of the above agents to PC12 cells for the indicated amounts of time (usually 0.5, 6, or 24 hours). Cells were lysed and aSMase activity measured using [choline methyl-14C] sphingomyeline. The amount of aSMase activity following the treatment of the agent was compared to vehicle without any FIASM. […] The data for the listed compounds (n=276) is based on the publication by Kornhuber et al. 2008, including compounds number n=101 combined with an additional set of compounds (n=175) Kornhuber J, Muehlbacher M, Trapp S, Pechmann S, Friedl A, Reichel M, Mühle C, Terfloth L, Groemer T W, Spitzer G M, Liedl K R, Gulbins E, Tripal P. Identification of novel functional inhibitors of acid sphingomyelinase. PLOS One. 2011; 6 (8): e23852. doi: 10.1371/journal.pone.0023852. Epub 2011 Aug. 31. PMID: 21909365; PMCID: PMC3166082. The numbering of compounds is identical to the previous publication for the first 101 compounds. CID=PubChem Compound ID. Set: 1=experimental values from Kornhuber et al. 2008, 2=corrected experimental values of the previously published compounds; 3=newly investigated compounds, Acid/Base: 1=monobase, 2=monoacid, 3=bibase, 4=zwitter. Mean residual activity of ASM is given as % of the corresponding control values.

aSMase [5] = conditions: cited from earlier work

| SMILES | immunosuppression in aSMase KO mice (CHS to DNFB) [1] | MVP levels in fibroblasts [2] | absorption with propylene glycol [3] | potency relative to imipramine (aSMase [4]) | Residual ASM Activity (aSMase [5]; 10 micromolar, PC12 cells, incubation time 0.5 h, % of corresponding control values) [%] | residual aSMase activity after treatment (aSMase [5]; from Kornhuber et al. 2008) [%] |
| --- | --- | --- | --- | --- | --- | --- |
| CCCCCCCCCCCCCCCCOC[C@H](COP(=O)([O-])OCC[N+](C)(C)C)OC(=O)NC [CPAF, carbamoyl-PAF] | resulted in similar levels of immunosuppression in comparison to wild-type mice | robust increases in MVP levels in response to PDT but not the PAFR agonist CPAF |  |  |  |  |
| CN(C)CCC=C1c2ccccc2CCc2ccccc21 [Amitriptyline] |  |  | enhances absorption | approximately three times more potent than imipramine | 11.7 | 11.7 |
